Test results published in PubChem BioAssay AID504681 (National Center for Advancing Translational Sciences (NCATS), 2011).

Tested on: PBS pH 7.4 stability, LC-MS/MS, 48 h
Assay: Inhibitors of Human alpha-Glucosidase: PBS Stability Profiling
Conditions: at 20 µM; hits give high values
Source text: Alpha-glucosidase is responsible for the hydrolysis of terminal, non-reducing 1,4-linked alpha-D-glucose residues, which releases alpha-D-glucose. It is a lysosomal hydrolase that is required for the degradation of a small percentage (1-3%) of cellular glycogen in humans. Deficiency of this enzyme results in glycogen-storage disease type II (GSDII), also referred to as Pompe disease, an autosomal recessive disorder. Structurally normal glycogen is accumulated in the lysosomes and cytoplasm in affected patients, primarily in muscle tissues. Excessive glycogen storage within lysosomes may interrupt normal functioning of other organelles and leads to cellular injury. In turn, this leads to enlargement and dysfunction of the entire organ involved (eg: cardiomyopathy and muscle weakness). The stability of the lead compound in PBS buffer is tested because this parameter has a significant impact on many ADME-concerned properties of drugs, such as uptake, distribution, transport, and eventually bioavailability. NIH Chemical Genomics Center [NCGC] NIH Molecular Libraries Probe Production Centers Network [MLPCN] […]
20uM of compound is incubated in PBS buffer at pH 7.4 at […]; the reference compound is procaine. Compounds are incubated at 37 deg C for the pre-determined time periods and the when aliquots are removed. Samples are analyzed with LC-MS/MS.

CC(=O)c1ccc(N2CCN(S(=O)(=O)c3ccc4c(c3)CC(=O)N4)CC2)cc1
percent remaining: 100%
